Patent US20250236616A1, “IMMUNOMODULATING AZALIDES” (Zoetis Services LLC, priority 2021, published 2025)
Values after ≈ are worked out from the molar mass of the structure shown.

Legend:
E. coli = test: MIC, E. coli; format: cell-based; details: Escherichia coli
Excerpt: Primary screening of the compounds of the invention included the evaluation of antibacterial activity of analogs through determination of microbial inhibition concentration (MIC) as per CLSI guidelines. The screening panel included the relevant BRD pathogens: 1) M. haemolytica (e.g., 12726, 46571 and 49023, all AHDRCC; and 33396 (ATCC)); and 2) P. multocida (e.g., 34135 and 46572 (both AHDRCC) and 43137 (ATCC)). In some instances, H. somni (A700025K) pathogens were also included in the screening panel. The AHDRCC strains originated from the Zoetis BRD/SRD surveillance program and refer to the Animal Health Development and Research Culture Collection. In addition, the screen assessed S. aureus (29213 ATCC) as a representative Gram-positive isolate, E.faecalis (19433 ATCC) as a commensal gram-positive gastrointestinal bacterium and E. coli (100, 3110 and 25922 (ATCC)) for the evaluation of efflux potential. The screening panel BRD pathogens were assessed in determining antibacterial activity of the Formula (1) compounds.
All relevant BRD pathogens were initially screened at a top concentration of 64 μg/mL of a Formula (1) compound in an eleven-point dilution series. […] If an Example was purified further, the MICs moved […] essentially two dilutions across all strains tested in the screening panel.
In-Vitro MIC Model Compounds were analyzed for antibacterial activity against a panel of animal health specific gram-positive and gram-negative clinical strains by diluting compounds in DMSO to an appropriate stock concentration to determine the Minimal Inhibitory Concentration (MIC) via a semi-automated broth micro-dilution method (CLSI reference method) with QC strains and anti-microbial agent(s). Specifically, bacteria were grown overnight on TSA w/5% sheep blood agar plates and diluted in saline buffer to a McFarland Standard 0.5, then further diluted in cation-ion adjusted Mueller Hinton Broth to a final concentration of approximately 5×10^5 CFU/mL. 100 μL of inoculated media was added to 96-well plate(s) with 3 μL of serially diluted compound in each row. Depending on strain (see CLSI reference method), bacteria were incubated 18-22 hours at 35-37° C. in ambient air, with 5% CO2 or anaerobically (up to 48 hours).

P. multocida = test: Murine P. multocida intranasal challenge study, treatment 18 hours after challenge, survival; format: in vivo, mice; details: subcutaneous 18 hours after challenge (5×10^3 CFU/mouse); tulathromycin 16 mg/kg, M9 32 mg/kg, ceftiofur 9 mg/kg
Experimental: In one murine P. multocida intranasal challenge study, mice were administered tulathromycin (16 mg/kg; T02), M9 (32 mg/kg; T03), or ceftiofur (9 mg/kg; T04) by subcutaneous injection 18 hours after bacterial challenge (5×10^3 CFU/mouse) for lung tissue RNA sequence analysis. Survival at Day 7 was about 80%, 50%, and 90% for T02, T03, and T04, respectively, compared to placebo at 0%. Differential gene expression from total lung tissue RNA sequence analysis indicated at least 226 unique genes were up or down regulated (with significance) for T03. Output from ingenuity pathway analysis of these unique genes predicted major upstream regulators of the involved pathways. Data was analyzed based on the number of genes being modulated in the same direction that were associated with a given upstream regulator. An activation z-score of 2 or greater is considered significant and the direction change is indicated by + (activated) or -(inhibited). The top 5 pathways included: IL-9 signaling, glucocorticoid receptor signaling, prolactin signaling, JAK STAT signaling, and IL-17 signaling. The top 6 upstream regulators (activation z-score) included: lipopolysaccharide (−6.725), TNF (−4.669), IFNγ (−5.759), IL-1β (−5.947), STAT1 (−2.787), and poly rl: rC-RNA (−5.289). Even though this study was run in the murine model, the top upstream regulators identified as being modulated by M9 include an almost ubiquitous overlap with the pathways identified in the natural disease study as being key mediators in BRD, and therefore is modulating highly relevant pathways in BRD pathobiology.

[1] = tested on: M. haemolytica (strain: OSU-012103-BHI); test: Bovine M. haemolytica intratracheal lung challenge model, mortality; format: in vivo; details: M. haemolytica challenge Day 0; subcutaneous Day -1; M9 10 mg/kg, Draxxin 2.5 mg/kg; 6 animals
Experimental: To evaluate immunomodulation effects and potential biomarkers, a bovine M. haemolytica (strain: OSU-012103-BHI) intratracheal lung challenge model study was completed utilizing M9 treatment in the presence and absence of bacterial challenge and a Draxxin® comparator. […] Animals were administered 0.05 mL/kg saline (T01), 10 mg/kg M9 (T02); Draxxin 2.5 mg/kg (T03) and 10 mg/kg M9 (T04) by subcutaneous injection on Day-1. Dose was based on body weight. Animals were challenge on Day 0 with the exception of T04. Blood was collected longitudinally throughout the study for biomarker evaluation panel (e.g., IL-6 and CD163) including two baseline samples prior to treatment. FIG. 4A depicts the area under the curve concentrations for IL-6 protein for individual animals against percent lung lesion scores and FIG. 4B depicts the CD163 fold change area under the curve for individual animals against percent lung lesion scores. Data is represented as percent lung lesion scores against the area under the curve (AUC) for IL-6 protein (immunoassay expressed in pg/mL) and CD163 (flow cytometric mean fluorescent intensity (MFI) in fold change from baseline). In both assays, a 2-fold change is typically considered to be relevant.

IL-6 = IL-6 biomarker in bovine M. haemolytica challenge; format: in vivo
Experimental: Cytokine Detection—An MSD U-Plex cytokine assay was developed following the MSD U-Plex protocol guide and included biotinylated capture antibodies against: bovine Interleukin (IL)-1β (Biorad), bovine IL-6 (R&D Systems) and bovine tumor necrosis factor (TNF)-α (R&D Systems). The anti-IL-1β antibody was biotinylated using EZ-Link Sulfo-NHS-Biotin (Thermo Scientific) at a challenge ratio of 1:20 according to manufacturer instructions. Assay calibrators (Kingfisher) were diluted to a concentration of […] in control lithium heparin plasma, followed by 4-fold serial dilutions into plasma. The detection antibodies were sulfo-tagged following the MSD quick guide conjugation protocol using a challenge ratio of 1:20. Antibodies were used at the following concentrations: anti-IL-1β at 1 μg/mL, anti-IL-6 at 1 μg/mL and anti-TNF-α at 0.5 μg/mL. Cytokines were quantified according to manufacturer's instructions using a chemiluminescent readout. In brief, 0.5 mL of all biotinylated antibodies were diluted to 10 μg/mL with Diluent 100 and paired to their respective linkers by adding 750 μL of supplied Linker solution and incubated for 30 minutes followed by addition of Stop solution for another 30 minutes. […] Plates were washed a further three times before addition of 150 μL 2X Read buffer and read immediately on the SI6000 instrument (MSD). […]

CCCNC[C@]1(O)[C@H](C)O[C@@H](O[C@H]2[C@H](C)[C@@H](O[C@@H]3O[C@H](C)C[C@H](N(C)C)[C@H]3O)[C@](C)(O)C[C@@H](C)CN[C@H](C)[C@@H](O)[C@](C)(O)[C@@H](CC)OC(=O)[C@@H]2C)C[C@@]1(C)OC [tulathromycin, (2R,3S,4R,5R,8R,10R,11R,12S,13S,14R)-11-(((2S,3R,4S,6R)-4-(dimethylamino)-3-hydroxy-6-methyltetrahydro-2H-pyran-2-yl)oxy)-2-ethyl-3,4,10-trihydroxy-13-(((2R,4R,5S,6S)-5-hydroxy-4-methoxy-4,6-dimethyl-5-((propylamino)methyl)tetrahydro-2H-pyran-2-yl)oxy)-3,5,8, 10, 12, 14-hexamethyl-1-oxa-6-azacyclopentadecan-15-one]
MIC (E. coli; E. coli 25922): 2 µg/mL (≈ 2.48 µM) | MIC (E. coli; E. coli W3110): 8 µg/mL (≈ 9.92 µM) | Survival at Day 7 (P. multocida): about 80% | Mortality [1]: 0/6 | IL-6 levels (IL-6): significantly reduced IL-6 levels
